{
  "source": "ChEMBL document CHEMBL1154419",
  "about": "“Pharmacodynamic effects of telavancin against methicillin-resistant and methicillin-susceptible Staphylococcus aureus strains in the presence of human albumin or serum and in an in vitro kinetic model” (Antimicrob Agents Chemother, 2007)",
  "system": "Staphylococcus aureus",
  "test": "Antibacterial activity against methicillin-resistant Staphylococcus aureus COL infected New Zealand white rabbit endocarditis model assessed as reduction in mean aortic vegetation titer at 30 mg/kg, iv twice daily after 4 days",
  "assay_type": "functional, Aorta",
  "data": [
    {"smiles": "CN[C@H](CC(C)C)C(=O)N[C@H]1C(=O)N[C@@H](CC(N)=O)C(=O)N[C@H]2C(=O)N[C@H]3C(=O)N[C@H](C(=O)N[C@H](C(=O)O)c4cc(O)cc(O)c4-c4cc3ccc4O)[C@H](O)c3ccc(c(Cl)c3)Oc3cc2cc(c3O[C@@H]2O[C@H](CO)[C@@H](O)[C@H](O)[C@H]2O[C@H]2C[C@](C)(N)[C@H](O)[C@H](C)O2)Oc2ccc(cc2Cl)[C@H]1O", "note": "[VANCOMYCIN]", "values": [
      {"measurement": "log10CFU/g", "value": 3.4}
    ]}
  ]
}
